One test concerns HCT-8. The test can be described thus: Dose required for in vitro cytotoxic activity against HCT-8 colon carcinoma cells at concentration of 10 ug/ml; NA is no cytotoxicity. To be noted: Homo sapiens. Format: functional, cell-based.
The next test concerns A549. The experiment in a line: Dose required for in vitro cytotoxic activity against A-549 lung carcinoma cells at concentration of 10 ug/ml; NA is no cytotoxicity. To be noted: Homo sapiens. Format: functional, cell-based.
The nature of test [1]: Effective dose required for in vitro cytotoxic activity against TE-671 medulloblastoma tumor cells. Format: functional. The settings on record: Homo sapiens, read-out: ED50 (the source's name).
Test [2] is described as follows: Effective dose required for in vitro cytotoxic activity against RPMI-7951 melanoma tumor cells. To be noted: Homo sapiens, read-out: ED50 (the source's name). Format: functional.

Values after ≈ are worked out from the molar mass of the structure shown. Active and inactive are the calls of the source. No cut-off for these calls is given here.

On to `C=C(C=O)[C@H](C)[C@@H]1CCC23CC12CC[C@@H]1[C@@]2(C)CC[C@@H](OC(C)=O)C(C)(C)[C@@H]2C[C@@H](O[C@@H]2O[C@H](COC(C)=O)[C@@H](O)[C@H](O)[C@H]2O)[C@]13C` (some centres undefined), for which the result in the test on HCT-8 and with A549 was inactive. In addition, the EC50 is 2.74 µg/mL (≈ 4.15 µM) in test [1] and 0.34 µg/mL (≈ 0.514 µM) in test [2].

The record behind these values is ChEMBL document CHEMBL1126413, “Cumindysoside A, a novel cytotoxic trisnortriterpene glucoside with a 14, 18-cycloapoeuphane-type skeleton from Dysoxylum cumingianum” (1992).
